Where two headings read alike, the source gives them in different places.
Legend:
[1] = Stimulation test (sense of taste, solid put on the tongue); format: in vivo; design: key to sense of taste stimulation: 0: No stimulation is felt.; 1: There is a stimulation but weak.; 2: There is a strong stimulation
Description: Each of five subjects has evaluated the sense of taste of the 5-aminolevulinic acid phosphate obtained in Example 1, in accordance with the following criteria by directly putting 5 mg of its solid on the tongue.
• 0: No stimulation is felt. • 1: There is a stimulation but weak. • 2: There is a strong stimulation.
The sense of taste was evaluated in the same manner as in Example 6, except that 5 mg of solid of 5-aminolevulinic acid hydrochloride was used.

[2] = tested on: New Zealand white rabbits (males), shaved uninjured skin; details: in vivo
Description: (§1) Using three New Zealand white rabbits (males), a solution prepared by dissolving 0.5 g of 5-aminolevulinic acid phosphate in 0.5 ml of distilled water (pH 3.1) was applied for 4 hours to a 2.5 cm square area of the shaved uninjured skin of each animal which was then observed for 1, 24, 48 and 72 hours.

[3] = pH of solution of 0.5 g in 0.5 ml of distilled water; format: physicochemical
Description: as §1

[4] = Test on the generation of silver chloride precipitation with silver nitrate; format: physicochemical; details: 0.5 g with 0.5 g of silver nitrate in 10 ml of ion exchange water, 5 minutes
Description: In 10 ml of ion exchange water, 0.5 g of 5-aminolevulinic acid phosphate and 0.5 g of silver nitrate were dissolved, the mixture was allowed to stand still for 5 minutes, and conditions of the liquid was observed. […] In this connection, 0.5 g of 5-aminolevulinic acid hydrochloride and 0.5 g of silver nitrate were dissolved in 10 ml of ion exchange water and allowed to stand still for 5 minutes, and conditions of the liquid was observed.
In 10 ml of ion exchange water, 0.5 g of 5-aminolevulinic acid nitrate and 0.5 g of silver nitrate were dissolved, the mixture was allowed to stand still for 5 minutes, and conditions of the liquid was observed.
In this connection, 0.5 g of 5-aminolevulinic acid hydrochloride and 0.5 g of silver nitrate were dissolved in 10 ml of ion exchange water and allowed to stand still for 5 minutes, and conditions of the liquid was observed.
In 10 ml of ion exchange water, 0.5 g of 5-aminolevulinic acid p-toluenesulfonate and 0.5 g of silver nitrate were dissolved, the mixture was allowed to stand still for 5 minutes, and conditions of the liquid was observed.

[5] = tested on: spiderwort Commelina communis; experiment: Plant activating effect, foliar application, spiderwort; format: in vivo; details: 21 days, 12 plants
Description: A total of 12 pots, in which 600 g of volcanic ash soil was packed in a porcelain pot of 12 cm in inner diameter, and 1 plant of a spiderwort Commelina communis grown to a height of 15 cm was planted in 1 pot, were prepared and placed under a constant temperature environment of 20° C., and foliar application treatment was carried out once a day using the following application liquids. Conditions of the leaves 21 days thereafter were observed.

Rice seeds (Akinishiki) = experiment: Plant growth regulation effect; format: in vivo; details: ratio to untreated plot
Description: Rice seeds (Akinishiki) were soaked in Benlate (manufactured by Sumika Takeda Engei) (200 times) aqueous solution for a whole day and night and then incubated at 30° C. under a dark condition to effect hastening of germination. Seeds of even pigeon breast stage were selected, 10 seeds were inserted using a pair of tweezers into a groove on one expanded polyethylene sheet, which was made using a cutter knife, and this sheet was floated on a tall Petri dish filled with 150 ml of 5-aminolevulinic acid phosphate of respective concentrations shown in Table 11 and incubated at 25° C. for 24 hours under 5,000 lux continuous light irradiation. The number of repetitions was set to 3 repetitions for each concentration. Examination was carried out three days thereafter, and lengths of the first leaf sheath and seminal root in each plot were measured to calculate their ratios to those in the untreated plot and to calculate average values thereof.

[6] = tested on: cotton (variety; M-5 Acala); experiment: Salinity tolerance improving effect; format: in vivo; design: key: salt damage: 0 = none, 5 = plant withered
Description: A porcelain pot of 12 cm in inner diameter having no drainage hole was filled with 600 g of upland soil, and 7 to 8 seeds of cotton seeds (variety; M-5 Acala) were sowed, covered with 1 cm in thickness of the soil and allowed to grow in a green house. Thereafter, general management was carried out, and at the time of leaflet development, a salinity improving agent containing each of the compounds to be tested with respective concentrations shown in Table 12 and 0.05% (v/v) of a spreader (Neoesterin: manufactured by Kumiai Chemical Industry) was prepared and was applied to foliage at an application volume of 100 liters per 10 are. Four days thereafter, sodium chloride in an amount which corresponds to 0 to 1.5% by weight per soil weight as shown in Table 12 was dissolved in 30 ml of water and added dropwise to the soil. By further continuing general cultivation, examination was carried out 23 days thereafter. the examination was carried out by naked eye observation, and the results of salt damage were evaluated based on the following 6 steps.
• 0: Absolutely no salt damage is observed. • 1: Very weak salt damage is observed. • 2: Weak salt damage is observed. • 3: Obvious salt damage is observed. • 4: Strong salt damage is observed. • 5: The plant body withered up due to salt damage.

[7] = male, New Zealand white, rabbit, 1 h
[8] = male, New Zealand white, rabbit, 24 h
[9] = male, New Zealand white, rabbit, 48 h
[10] = male, New Zealand white, rabbit, 72 h

NCC(=O)CCC(=O)O.O=P(O)(O)O [5-aminolevulinic acid phosphate, 5-aminolevulinic Acid Phosphate]
stimulation on the tongue in comparison with hydrochloride ([1]; 5 mg of solid): strong stimulation was not found | sense of taste stimulation ([1]; 5 mg of solid on the tongue, one score per subject, five subjects): 1 | Formation of dropsy and edema (formed numbers), per rabbit ([2]; male, New Zealand white, 1 h): 0 | Formation of erythema and dry crust (formed numbers), per rabbit ([2]; male, New Zealand white, 1 h): 1 | Formation of dropsy and edema (formed numbers), per rabbit ([2]; male, New Zealand white, 24 h): 0 | Formation of erythema and dry crust (formed numbers), per rabbit ([2]; male, New Zealand white, 24 h): 1 | Formation of dropsy and edema (formed numbers), per rabbit ([2]; male, New Zealand white, 48 h): 0 | Formation of erythema and dry crust (formed numbers), per rabbit ([2]; male, New Zealand white, 48 h): 0 | Formation of dropsy and edema (formed numbers), per rabbit ([2]; male, New Zealand white, 72 h): 0 | Formation of erythema and dry crust (formed numbers), per rabbit ([2]; male, New Zealand white, 72 h): 0 | Total formed numbers after 24 hours and 72 hours ([2]; male, New Zealand white, rabbit): Total formed numbers after 24 hours and 72 hours: 3 | Formation of dropsy and edema (formed numbers) [2, 7]: 0 | Formation of dropsy and edema, Total of three rabbits [2, 7]: 0 | Formation of erythema and dry crust (formed numbers) [2, 7]: 0 | Formation of erythema and dry crust, Total of three rabbits [2, 7]: 3 | skin reaction observed ([2]; male, New Zealand white, rabbit, 4 h): very slight red spots were observed within 24 hours, but became normal when observed after 48 hours | Formation of dropsy and edema (formed numbers) [2, 8]: 0 | Formation of dropsy and edema, Total of three rabbits [2, 8]: 0 | Formation of erythema and dry crust (formed numbers) [2, 8]: 0 | Formation of erythema and dry crust, Total of three rabbits [2, 8]: 3 | Formation of dropsy and edema (formed numbers) [2, 9]: 0 | Formation of dropsy and edema, Total of three rabbits [2, 9]: 0 | Formation of erythema and dry crust (formed numbers) [2, 9]: 0 | Formation of erythema and dry crust, Total of three rabbits [2, 9]: 0 | Formation of dropsy and edema (formed numbers) [2, 10]: 0 | Formation of dropsy and edema, Total of three rabbits [2, 10]: 0 | Formation of erythema and dry crust (formed numbers) [2, 10]: 0 | Formation of erythema and dry crust, Total of three rabbits [2, 10]: 0 | skin stimulation ([2]; rabbit): skin stimulation was not observed | stimulation classification (United Nations recommendation GHS) ([2]; rabbit): does not come under a stimulus substance | pH of solution [3]: 3.1 | generation of precipitate [4]: Generation of the precipitate was not found | plants judged 0: Abnormality was not found on the leaf surface ([5]; 1 ppm in tap water): 6 plants | plants judged 1: A region discolored to yellow was found on the leaf surface ([5]; 1 ppm in tap water): 5 plants | plants judged 2: A necrotic region was found on the leaf surface ([5]; 1 ppm in tap water): 1 plant^ plants | plants judged 0: Abnormality was not found on the leaf surface ([5]; 10 ppm in tap water): 7 plants | plants judged 1: A region discolored to yellow was found on the leaf surface ([5]; 10 ppm in tap water): 3 plants | plants judged 2: A necrotic region was found on the leaf surface ([5]; 10 ppm in tap water): 2 plants | plants judged 0: Abnormality was not found on the leaf surface ([5]; 100 ppm in tap water): 6 plants | plants judged 1: A region discolored to yellow was found on the leaf surface ([5]; 100 ppm in tap water): 4 plants | plants judged 2: A necrotic region was found on the leaf surface ([5]; 100 ppm in tap water): 2 plants | First leaf sheath length (%) (Rice seeds (Akinishiki); 1 ppm): 102% | Seminal root length (%) (Rice seeds (Akinishiki); 1 ppm): 106% | First leaf sheath length (%) (Rice seeds (Akinishiki); 10 ppm): 106% | Seminal root length (%) (Rice seeds (Akinishiki); 10 ppm): 108% | First leaf sheath length (%) (Rice seeds (Akinishiki); 100 ppm): 101% | Seminal root length (%) (Rice seeds (Akinishiki); 100 ppm): 101% | salt damage evaluation ([6]; treating concentration 10 ppm, NaCl 0 wt % per soil weight): 0 | salt damage evaluation ([6]; treating concentration 10 ppm, NaCl 0.5 wt % per soil weight): 0 | salt damage evaluation ([6]; treating concentration 10 ppm, NaCl 0.75 wt % per soil weight): 1 | salt damage evaluation ([6]; treating concentration 10 ppm, NaCl 1 wt % per soil weight): 2 | salt damage evaluation ([6]; treating concentration 10 ppm, NaCl 1.5 wt % per soil weight): 3 | salt damage evaluation ([6]; treating concentration 30 ppm, NaCl 0 wt % per soil weight): 0 | salt damage evaluation ([6]; treating concentration 30 ppm, NaCl 0.5 wt % per soil weight): 0 | salt damage evaluation ([6]; treating concentration 30 ppm, NaCl 0.75 wt % per soil weight): 0 | salt damage evaluation ([6]; treating concentration 30 ppm, NaCl 1 wt % per soil weight): 1 | salt damage evaluation ([6]; treating concentration 30 ppm, NaCl 1.5 wt % per soil weight): 2 | salt damage evaluation ([6]; treating concentration 100 ppm, NaCl 0 wt % per soil weight): 0 | salt damage evaluation ([6]; treating concentration 100 ppm, NaCl 0.5 wt % per soil weight): 1 | salt damage evaluation ([6]; treating concentration 100 ppm, NaCl 0.75 wt % per soil weight): 2 | salt damage evaluation ([6]; treating concentration 100 ppm, NaCl 1 wt % per soil weight): 3 | salt damage evaluation ([6]; treating concentration 100 ppm, NaCl 1.5 wt % per soil weight): 4 | salt damage evaluation ([6]; treating concentration 300 ppm, NaCl 0 wt % per soil weight): 0 | salt damage evaluation ([6]; treating concentration 300 ppm, NaCl 0.5 wt % per soil weight): 1 | salt damage evaluation ([6]; treating concentration 300 ppm, NaCl 0.75 wt % per soil weight): 1 | salt damage evaluation ([6]; treating concentration 300 ppm, NaCl 1 wt % per soil weight): 2 | salt damage evaluation ([6]; treating concentration 300 ppm, NaCl 1.5 wt % per soil weight): 3
